# Patent US20060095978A1, “Screening assay” (priority 2002, published 2006)
# Tests used:
# IL-4 = assay: Serum IL-4 in OVA323-339 stimulated DO11.10 mice (ELISA); assay type: in vivo, mouse; details: for IL-4 level in pg/ml serum on day 0 after 0 hours: 0 hours (before injection)
# Protocol: Groups of six, 8-10 weeks old, male or female DO11.10 mice weighing between 20-22 g are obtained as described in Murphy K. M. et al. 1990, Science 250:1720-1722. The animals are maintained in Microvent positive air supply cages (22±1° C., 55±5% relative humidity, 50-70 changes of fresh air/hour and 12 hours day and night cycle) with sawdust bedding. Standard laboratory mouse chow (SNIFF, Soest, Germany) and drinking water is given ad libidum. The animals are used for the study after an adaptation period of 10-14 days and grouped (6 per group) in type II Macrolon cages one day before the experiment.
# Groups of six DO11.10 mice are i.p. injected with 10 μg of ovalbumin (OVA, Sigma, St. Louis, USA) absorbed to 2 mg of Al(OH)3 (Alu Gel S; 2% Al(OH)3, Serva, Heidelberg, FRG) and diluted with saline to a volume of 0.2 ml or various amounts (1, 3, 10, 30, or 90 μg per mouse) of alum-precipitated OVA323-339 peptide (98% purity, piChem R&D, Graz Austria) in 0.2 ml on days 0 and 14. Before and at different time points on days 0 and 14 after the OVA or OVA323-339 peptide administration about 200 μl of blood are collected by puncture of the retro-orbital plexus under ether anesthesia.
# The sera are collected and stored frozen at −20° C. until analyzed. […]
# Murine IL-2, IFN-γ and IL-4 are analyzed by immunoassays (Quantikine R&D Systems, Minneapolis, Minn., USA). Results are expressed as pg per ml serum expressed as mean±SEM pg of the cytokine indicated per ml serum. Test and control groups are evaluated by Dunn test by Kruskall-Wallis One Way Anova using the SigmaStat® program.
# Serum IL-4 levels after primary and secondary OVA323-339 peptide antigen stimulation are shown in TABLE 3: Groups of 6 mice receive various doses (1, 3, 10, 30 and 90 μg/mouse) of alum-precipitated OVA323-339 peptide i.p. on day 0 and 14. Animals of the control group are injected with alum. Blood is collected before and at 2, 4, and 6 hours after the first (A) and after the second peptide injection (B). IL-4 is determined in the sera by an ELISA. Results are expressed as mean pg per ml serum±SEM. […]
# IL-1α = assay: Serum IL-1α in DO11.10 mice primed with OVA-peptide and challenged with LPS; assay type: in vivo, mouse; details: challenged with the highest LPS dose
# Protocol: Animals are provided as described in Example 2a).
# b) Administration of OVA323-339 (=OVA-peptide) and LPS Groups of six DO11.10 mice receive i.p. 30 μg of OVA323-339 peptide (98% purity, pi Chem R&D, Graz Austria) in 0.2 ml 0.9% saline per mouse. Control mice are injected i.p. with the same amount of saline.
# 18 hours later the mice are challenged i.p. with 100, 300 or 500 μg LPS (E. coli 0111: B4 Sigma Vienna, Austria). At 2, 4 and 6 hours after the LPS administration about 200 μl of blood are collected by puncture of the retro-orbital plexus under ether anesthesia. The sera are collected and stored frozen at −20° until analyzed.
# Murine IL-1α, IL-1β and TNF-α serum levels are determined by ELISAs (IL-1α and TNF-α, Bender MedSystems, Vienna Austria; IL-1β, Quantikine R&D Systems, Minneapolis, Minn.). Results are expressed as pg per ml serum. Differences in the serum cytokines concentrations between the different experimental groups are examined for statistical significance by the Mann-Whitney U test, two tailed. Results are expressed as the mean±SEM. p<0.05 is regarded as significant.
# The injection of OVA-peptide at doses between 3 and 90 μg per mouse increases serum concentrations of IFN-γ as well as other cytokines, such as IL-4 and IL-2, in a dose/amount-dependent way. […] The serum IL-1α levels are expressed as mean pg per ml serum±SEM.
substance,measurement,setting,value
"OVA323-339: peptide derived from chicken ovalbumin containing amino acids from position 323 to 339 (KISQAVHAAHAEINEAG; UniProt P01012 323-339, looked up, fragment)",IL-4 level in pg/ml serum on day 0 after 0 hours,IL-4; 1 μg OVA323-339 i.p.,25.770 ± 2.618 pg/mL
same,IL-4 level in pg/ml serum on day 0 after 2 hours,IL-4; 1 μg OVA323-339 i.p.,36.426 ± 5.871 pg/mL
same,IL-4 level in pg/ml serum on day 0 after 4 hours,IL-4; 1 μg OVA323-339 i.p.,4.094 ± 1.072 pg/mL
same,IL-4 level in pg/ml serum on day 0 after 6 hours,IL-4; 1 μg OVA323-339 i.p.,13.354 ± 4.010 pg/mL
same,change of IL-4 levels,"IL-4; 1 μg of peptide, first injection",remain unchanged
same,IL-4 level in pg/ml serum on day 0 after 0 hours,IL-4; 3 μg OVA323-339 i.p.,17.905 ± 3.616 pg/mL
same,IL-4 level in pg/ml serum on day 0 after 2 hours,IL-4; 3 μg OVA323-339 i.p.,37.706 ± 4.028 pg/mL
same,IL-4 level in pg/ml serum on day 0 after 4 hours,IL-4; 3 μg OVA323-339 i.p.,7.903 ± 0.957 pg/mL
same,IL-4 level in pg/ml serum on day 0 after 6 hours,IL-4; 3 μg OVA323-339 i.p.,11.051 ± 2.549 pg/mL
same,increase of serum IL-4 levels compared to alum control,"IL-4; 3 μg of peptide, after 2 hours",only slightly
same,IL-4 level in pg/ml serum on day 0 after 0 hours,IL-4; 10 μg OVA323-339 i.p.,16.296 ± 3.397 pg/mL
same,IL-4 level in pg/ml serum on day 0 after 2 hours,IL-4; 10 μg OVA323-339 i.p.,41.870 ± 9.751 pg/mL
same,IL-4 level in pg/ml serum on day 0 after 4 hours,IL-4; 10 μg OVA323-339 i.p.,18.804 ± 1.757 pg/mL
same,IL-4 level in pg/ml serum on day 0 after 6 hours,IL-4; 10 μg OVA323-339 i.p.,5.735 ± 2.226 pg/mL
same,increase of serum IL-4 levels compared to alum control,"IL-4; 10 μg of peptide, after 2 hours",only slightly
same,IL-4 level in pg/ml serum on day 0 after 0 hours,IL-4; 30 μg OVA323-339 i.p.,16.524 ± 2.209 pg/mL
same,IL-4 level in pg/ml serum on day 0 after 2 hours,IL-4; 30 μg OVA323-339 i.p.,93.594 ± 29.015 pg/mL
same,IL-4 level in pg/ml serum on day 0 after 4 hours,IL-4; 30 μg OVA323-339 i.p.,41.725 ± 10.226 pg/mL
same,IL-4 level in pg/ml serum on day 0 after 6 hours,IL-4; 30 μg OVA323-339 i.p.,17.173 ± 2.069 pg/mL
same,rise of serum IL-4 levels,"IL-4; 30 μg of peptide, at 2 hours",3 fold
same,IL-4 level in pg/ml serum on day 0 after 2 hours,IL-4; 90 μg OVA323-339 i.p.,273.017 ± 95.997 pg/mL
same,IL-4 level in pg/ml serum on day 0 after 4 hours,IL-4; 90 μg OVA323-339 i.p.,146.940 ± 21.784 pg/mL
same,IL-4 level in pg/ml serum on day 0 after 6 hours,IL-4; 90 μg OVA323-339 i.p.,127.616 ± 7.397 pg/mL
same,rise of serum IL-4 levels,"IL-4; 90 μg peptide, after 4 and 6 hours",7-8 fold
same,increase of serum IL-4 levels,"IL-4; 90 μg peptide, after 2 hours",14 fold
same,rise in the IL-4 levels after the second antigen stimulation,IL-4; second antigen stimulation (day 14),up to several 100 fold
same,change of IL-4 levels compared to the control,IL-4; second injection of 1 μg of peptide 2 weeks later,does not change
same,effect of OVA-peptide priming on IL-1α serum levels,IL-1α,rapid increase
